This is an account of results in patent US20090156477A1, “Compositions and Methods for Regulating Inflammatory Responses” (Massachusetts Institute of Technology, priority 2005, published 2009).

What all share (assay type): cell-based, human
For one test, the system named is TCF/LEF. Briefly: TCF/LEF assay (TOPFLASH luciferase) in Caco-2 cells. The note with it: compared to PBS and FGF1. As to the method: Caco-2 cells were seeded in 12 well plates such that they would reach 90% confluency in 4 days. Two days after plating, Caco-2 cells were transiently transfected with the TOPFLASH (contains 4 TCF/LEF binding elements) luciferase promoter construct (Promega, Madison, Wis.) as well as a thymidine kinase driven renilla luciferase construct (Promega, Madison, Wis.) as a transfection control vector. Each well was transfected with 1.5 μg DNA using Superfect transfection reagent (Promega, Madison, Wis.). Twenty-four hours after transfection, Caco-2 cells were treated with PBS, FGF1, FGF2 or FGF7, for 1 hour, 4 hours or 24 hours. The Caco-2 cells were processed using a dual-luciferase assay system to measure luciferase activity from both the TOPFLASH constructs and the renilla constructs. All results were standardized to the relative transfection efficiencies as observed from the renilla values.

Another test deals with T84 monolayers. Briefly: Monolayer flux of 3 kDa FITC-dextran, T84. The note with it: 100 ng/ml ligand on days 10 and 12, flux measured on day 15, PBS 7.99 ± 0.22. Here is the method: (§1) Cells were plated on transwells as described. Media from the basolateral chamber was removed every other day and replaced with new media. Resistances were followed for 10 days, and either 100 ng/ml FGF2, 100 ng/ml FGF7 or 10 μl PBS were added on days 10 and 12. On day 15, media was removed from both the apical and basolateral chambers. The basolateral chamber was filled with 1 ml HBSS. FITC conjugated to 3 kDa dextran was added to the apical chamber in a volume of 100 μl, at 1 mg/ml in HBSS. After 30, 60 and 90 minutes, 50 μl was removed from the basolateral chamber and transferred to a 96 well plate, and 50 μl HBSS was added to the basolateral chamber. Subsequently, the flux was determined by measurement of FITC-conjugated dextran that crossed the monolayer by measurement with a fluorimeter, stimulating at 480 nm and measuring emission at 530 nm.

In another test the test system is E-cadherin. As to the kind of experiment: Immunohistochemistry for E-cadherin in Caco-2 cells. The conditions noted are these: for E-cadherin localization after 24 hours: vs 1 hour and vs PBS and FGF1. Here is the method:
Caco-2 cells were grown to just prior to confluency on collagen IV coated glass slides. Cells were treated with PBS, FGF1, FGF2 and FGF7, and were incubated at 37° C. in a 5% CO2 humidified incubator for 1 hour, 4 hours, 24 hours or 48 hours, as noted. Cells were washed with PBS, fixed with 3.7% formalin for 10 minutes and washed again with PBS. Cells were treated with 0.1% Triton x-100 for 5 minutes to extract lipids. Cells were washed with PBS and preincubated with PBS supplemented with 1% bovine serum albumin. Primary antibodies were added for 4 hours at room temperature, and cells were washed with PBS. Primary antibodies used were as follows: rabbit anti-human ZO-1 (1:160; Zymed Laboratories, San Francisco, Calif.); mouse anti-human syndecan-1 (1:300; Santa Cruz Biotechnology); goat anti-human Fz-1 (1:125; Santa Cruz Biotechnology); rabbit anti-human caveolin-1 (1:250; Santa Cruz Biotechnology); goat anti-human glypican-1 (1:100; Santa Cruz Biotechnology); mouse anti-human E-cadherin (1:250; Zymed Laboratories); rabbit anti-human β-catenin (1:125; Cell Signaling Technology, Beverly, Mass.); and rabbit anti-human phospho-β-catenin (Ser33/37/Thr41; 1:125; Cell Signaling Technology, Beverly, Mass.).
Cells were then treated with secondary antibodies, Texas Red-labeled phalloidin (Molecular Probes, Eugene, Oreg.) or FLAER-FL1 (1:400; Protox Biotech, Victoria, BC, Canada) as appropriate for 1 hour in the dark at room temperature. Secondary antibodies used were as follows: FITC-labeled chicken anti-rabbit (for ZO-1; 1:100; Molecular Probes, Eugene, Oreg.); Texas Red-labeled goat-anti mouse (for syndecan-1; 1:400; Molecular Probes); FITC-labeled donkey anti-mouse (for syndecan-1; 1:400; Molecular Probes, Eugene, Oreg.); FITC-labeled rabbit anti-mouse (for syndecan-1 and E-cadherin; 1:500; Molecular Probes, Eugene, Oreg.); Texas Red-labeled rabbit anti-goat (for Fz-1; 1:200; Jackson ImmunoResearch Laboratories, West Grove, Pa.); Texas Red-labeled goat anti-rabbit (for caveolin-1, β-catenin and phospho-β-catenin; 1:500; Molecular Probes); and Texas Red-labeled donkey anti-goat (for glypican-1; 1:80; Research Diagnostics, Flanders, N.J.).
Cells, except those stained with phalloidin, were washed with PBS and stained with diamidino-2-phenylindole (DAPI) for 5 minutes at room temperature (Molecular Probes). Controls of no antibody, primary antibody only, and secondary antibody only were performed. Cells were examined by confocal microscopy (ZO-1 and phalloidin only), or by fluorescence microscopy. A Nikon HB10101AF fluorescence microscope was used and images were captured at room temperature using a Hitachi HVC20 camera and Scion image acquisition software. Images were processed using Adobe Photoshop 7.0 and Adobe Illustrator 10.0.

The next test has as its system occludin and ZO-1. As to the kind of experiment: Immunostaining for occludin and ZO-1 in T84 cells. The conditions noted are these: 100 ng/ml. As to the method:
To determine occludin and ZO-1 expression patterns, cells were plated on transwells as described for TER assays. Media from the basolateral chamber was removed every other day and replaced with new media. Resistances were measured for 10 days, and either 100 ng/ml FGF2, 100 ng/ml FGF7 or 10 μl PBS were added on days 10 and 12. On day 15, media was removed from both the apical and basolateral chambers, and the apical chamber was washed twice with PBS. One ml of 1% (w/v) paraformaldehyde in cacodylate buffer was added to each well, the plates were incubated for 10 minutes at room temperature, and the wells were washed once in PBS. One ml permeabilization media, consisting of 0.2% Triton X-100 and 2% BSA in PBS, was added to each well. After a 10 minute incubation at room temperature, wells were washed three times. 20 μl primary antibodies (rabbit polyclonal anti-human or occludin rabbit polyclonal anti-human ZO-1) diluted 1:20 in 1% goat serum, 0.25% sodium azide in PBS, were added to the apical chamber of three wells per antibody per ligand, and plates were incubated for 1 hour in a humidified chamber. […] Staining was then visualized by fluorescence microscopy. […] A Nikon HB10101AF fluorescence microscope was used to capture images at room temperature using a Hitachi HVC20 camera and Scion image acquisition software.

A further test deals with f-actin. As to the kind of experiment: f-actin (phalloidin) staining in Caco-2 cells. The note with it: Caco-2 monolayers. As to the method: (§2) Caco-2 cells were grown to just prior to confluency on collagen IV coated glass slides. Cells were treated with PBS, FGF1, FGF2 and FGF7, and were incubated at 37° C. in a 5% CO2 humidified incubator for 1 hour, 4 hours, 24 hours or 48 hours, as noted. Cells were washed with PBS, fixed with 3.7% formalin for 10 minutes and washed again with PBS. Cells were treated with 0.1% Triton x-100 for 5 minutes to extract lipids. Cells were washed with PBS and preincubated with PBS supplemented with 1% bovine serum albumin. Primary antibodies were added for 4 hours at room temperature, and cells were washed with PBS. […]
(§3) Cells, except those stained with phalloidin, were washed with PBS and stained with diamidino-2-phenylindole (DAPI) for 5 minutes at room temperature (Molecular Probes). […] Cells were examined by confocal microscopy (ZO-1 and phalloidin only), or by fluorescence microscopy. A Nikon HB10101AF fluorescence microscope was used and images were captured at room temperature using a Hitachi HVC20 camera and Scion image acquisition software. […]

Another test has as its system phospho-β-catenin. Briefly: Immunohistochemistry for phospho-β-catenin in Caco-2 cells. As to the method: as §2, §3
A further test has as its system Caco-2 monolayers. As to the kind of experiment: Monolayer flux of 3 kDa FITC-dextran, Caco-2. The conditions noted are these: 100 ng/ml ligand on days 10 and 12, flux measured on day 15, PBS 20.28 ± 4.72. Here is the method: as §1

Consider “FGF2: Recombinant human FGF2, produced as described”, for which the TCF/LEF activity entry in the test on TCF/LEF is recorded as “increased TCF/LEF activity”. The “Flux across monolayers (3 kDa-dextran conjugated to FITC; function of emission at 530 nm over time)” value in the test with T84 monolayers was 37.21 ± 10.25. Further, in the test on E-cadherin, the “E-cadherin localization after 1 hour” value was “altered E-cadherin localization” and the “E-cadherin localization after 24 hours” value is “more cytoplasmic localization”. For the same molecule, the “membrane ruffling (tight junction protein staining)” value in the test with occludin and ZO-1 is on record as “induced ruffling of cell membranes”. Moreover, the “actin stress fiber formation” value in the test on f-actin is reported as “induced actin stress fiber formation”. Moreover, in the test on phospho-β-catenin, the “phosphorylated β-catenin localization” value was “clustered around the nucleus”. For the same molecule, the “Flux across monolayers (3 kDa-dextran conjugated to FITC; function of emission at 530 nm over time)” value with Caco-2 monolayers amounted to 47.82 ± 4.64.

B1: FGF7: Recombinant human FGF7 from Sigma (protein, UniProt P21781 32-194, looked up)
Fibroblast growth factor 7: CNDMTPEQMATNVNCSSPERHTRSYDYMEGGDIRVRRLFCRTQWYLRIDKRGKVKGTQEMKNNYNIMEIRTVAVGIVAIKGVESEFYLAMNKEGKLYAKKECNEDCNFKELILENHYNTYASAKWTHNGGEMFVALNQKGIPVRGKKTKKEQKTAHFLPMAIT
With B1, the TCF/LEF activity entry in the test on TCF/LEF is reported as “increased TCF/LEF activity”. Also, the entries for the “Flux across monolayers (3 kDa-dextran conjugated to FITC; function of emission at 530 nm over time)” value with T84 monolayers and in the test on Caco-2 monolayers were 33.39 ± 9.24 and 117.14 ± 25.36, respectively. Further, the “E-cadherin localization after 1 hour” value with E-cadherin is “altered E-cadherin localization”. Moreover, the “E-cadherin localization after 24 hours” value in the test on E-cadherin is “more cytoplasmic localization”. Further, the “membrane ruffling (tight junction protein staining)” value with occludin and ZO-1 is “induced ruffling of cell membranes”. For the same molecule, the “actin stress fiber formation” value with f-actin is listed as “induced actin stress fiber formation”. Moreover, the “phosphorylated β-catenin localization” value with phospho-β-catenin was “clustered around the nucleus”.
